Source: paper PMC6097718 (Journal of medicinal chemistry, 2018)

Legend:
IGROV1 EOC cells = details: colony-forming assay; cited from earlier work
[1] = test system: IGROV1 human EOC xenografts; assay: In vivo efficacy trial with IGROV1 EOC xenografts in SCID mice
IGROV1 knockdown cells = assay: Growth inhibition in IGROV1 FRα knockdown cells; assay type: cell-based, human; details: up to 1000 nM drug
[2] = test system: R1–11-FR2 HeLa cells expressing FRα; assay: Cell proliferation assay, FRα-expressing HeLa subline R1–11-FR2
[3] = test system: R1–11-PCFT4 HeLa cells expressing PCFT; assay: Cell proliferation assay, PCFT-expressing HeLa subline R1–11-PCFT4

Nc1nc2[nH]c(CCCc3ccc(C(=O)N[C@@H](CCC(=O)O)C(=O)O)s3)cc2c(=O)[nH]1 [Compound 1]
cell killing (IGROV1 EOC cells): greater than 99% | tumor burden range ([1]; day 60, folate-deficient diet, iv, 11 Q4dX4 95 (mg/kg)/inj, 1 Q4dX3 32 (mg/kg)/inj): 0 to 196 mg | acute or long-term toxicities ([1]; equitoxic dose levels, SCID mice): no acute or long-term toxicities other than completely reversible loss of weight | antitumor activity on standard (high folate) diet ([1]; standard folate-replete diet): ablated | weight loss or adverse symptoms on standard (high folate) diet ([1]; standard folate-replete diet): No weight losses or other adverse symptoms were observed

Nc1nc2[nH]c(CCCCc3ccc(C(=O)N[C@@H](CCC(=O)O)C(=O)O)cc3)cc2c(=O)[nH]1 [Compound 2]
growth inhibition upon FRα knockdown (IGROV1 knockdown cells): complete loss of growth inhibition

Nc1nc2[nH]c(CCCCc3csc(C(=O)N[C@@H](CCC(=O)O)C(=O)O)c3)cc2c(=O)[nH]1 [Compound 5]
growth inhibition upon FRα knockdown (IGROV1 knockdown cells): complete loss of growth inhibition

Nc1nc2[nH]c(CCCCc3ccc(C(=O)N[C@@H](CCC(=O)O)C(=O)O)c(F)c3)cc2c(=O)[nH]1 [Compound 8, (4-(4-(2-Amino-4-oxo-4,7-dihydro-3H-pyrrolo[2,3-d]pyrimidin-6-yl)butyl)-2-fluorobenzoyl)-L-glutamic Acid]
growth inhibition upon FRα knockdown (IGROV1 knockdown cells): complete loss of growth inhibition

Nc1nc2[nH]c(CCCc3ccc(C(=O)N[C@@H](CCC(=O)O)C(=O)O)c(F)c3)cc2c(=O)[nH]1 [Compound 9, (4-(3-(2-Amino-4-oxo-4,7-dihydro-3H-pyrrolo[2,3-d]pyrimidin-6-yl)propyl)-2-fluorobenzoyl)-L-glutamic Acid]
fold IC50 below that for compound 1 ([2]; R1–11-FR2 cells): 6 fold | fold IC50 below that for compound 1 ([3]; R1–11-PCFT cells): 10 fold

Nc1nc2[nH]c(CCCCc3cnc(C(=O)N[C@@H](CCC(=O)O)C(=O)O)c(F)c3)cc2c(=O)[nH]1 [Compound 10, (5-(4-(2-Amino-4-oxo-4,7-dihydro-3H-pyrrolo[2,3-d]pyrimidin-6-yl)butyl)-3-fluoropicolinoyl)-L-glutamic Acid]
growth inhibition upon FRα knockdown (IGROV1 knockdown cells): complete loss of growth inhibition

Nc1nc2[nH]c(CCCc3csc(C(=O)N[C@@H](CCC(=O)O)C(=O)O)c3F)cc2c(=O)[nH]1 [Compound 12, (4-(3-(2-Amino-4-oxo-4,7-dihydro-3H-pyrrolo[2,3-d]pyrimidin-6-yl)propyl)-3-fluorothiophene-2-carbonyl)-L-glutamic Acid]
fold reduced IC50 of fluorinated versus nonfluorinated counterpart ([2]; R1–11-FR2 HeLa cells): 2–3 fold | selectivity for PCFT versus RFC (IC50 R1–11-RFC2/IC50 R1–11-PCFT) ([3]; HeLa sublines): ~ 3
